Assay results: PMC10675077, “Antimicrobial Properties of New Polyamines Conjugated with Oxygen-Containing Aromatic Functional Groups” (Molecules, 2023)
Converted amounts (≈) assume the structure as drawn. Where two headings read alike, the source gives them in different places. Marks after values point to notes of the source that are not given here.

Legend:
S. aureus BHI = assay: Minimal bactericidal concentration, S. aureus; type: cell-based, Staphylococcus aureus; conditions: overnight incubation, plating on LB; for MBC: Staphylococcus aureus
Method: (§1) Once the MIC was known, the samples were prepared as described in the previous section with polyamine concentrations corresponding to the MIC and half, double, and four times its value. After overnight incubation with the microorganisms, 30 μL of a ten-fold dilution of each one was spread in LB (in the case of bacterial strains) or SC-ura (for yeast strains) plates. They were incubated for 20 h at 37 °C (bacteria) or 48 h at 30 °C (yeasts), and the level of growth was determined. […] Experiments were carried out at least three times.

[1] = system: Staphylococcus aureus BHI; assay: MIC, microdilution in culture medium, S. aureus; type: cell-based; conditions: 20 h, 37 °C, average of at least three experiments; for MIC: Staphylococcus aureus, read-out: MIC, Bacteria, S. aureus BHI
Excerpt: (§2) The microorganisms used for the susceptibility tests were the bacteria Escherichia coli JM101 and Staphylococcus aureus BHI, and the yeast Saccharomyces cerevisiae strains BY4741 (MAT a his3Δ1 leu2Δ0 met15Δ0 ura3Δ0 (EUROSCARF)) carrying YEplac195 (from EUROSCARF) or YEPlac195-PDR5 (provided by Ayse Banu Demir, Izmir University of Economics, Turkey) plasmids.
(§3) Bacterial strains were usually maintained and grown in an LB medium (0.5% (w/v) yeast extract, 1% (w/v) bactotryptone, and 1% (w/v) NaCl) at 37 °C. For MIC (minimal inhibitory concentration) and MMC (minimal microbicidal concentration) assays, and for the determination of synergies, overnight growth was carried out in 2% (w/v) bactopeptone (BP), and then the cultures were diluted and incubated for several hours in 2% (w/v) BP for ensuring logarithmic growth. Yeast strains were grown in an SC-ura medium (0.17% (w/v) yeast nitrogen base without amino acids and ammonium sulphate, 0.2% (w/v) drop-out without uracil, 0.5% (w/v) (NH4)2SO4, and 2% (w/v) glucose) at 30 °C. Liquid cultures were incubated with shaking (200 rpm). Solid media also contained 2% (w/v) agar.
For the analysis of the antimicrobial activity, the strategies and indications of Cushnie et al. were considered. The standardised method of microdilution in a culture medium was followed to determine the MIC [55]. In bacterial strains, serial dilutions of the compounds to be tested and the control antibiotics were prepared in phosphate buffer (20 mM, pH 7.4, 0.5 mL) and were mixed with a suspension of bacterial cells in a logarithmic growth phase (in 1% BP, 0.5 mL). The final OD600 of the whole solutions were 0.004 and 0.008 for E. coli and S. aureus cultures, respectively. After 20 h of incubation at 37 °C with shaking, the MIC was determined as the lowest concentration of each compound in which no visible bacterial growth was observed.

[2] = system: Yeast (S. cerevisiae strains); assay: MIC, yeast (strain not specified); type: cell-based, Saccharomyces cerevisiae; conditions: for MIC: Saccharomyces cerevisiae, read-out: MIC Yeast
Method: (§4) The determination of the MIC for yeast strains was carried out following a similar procedure to that of the polyamines and antifungal reference agents: Serial dilutions of each one in phosphate buffer (20 mM, pH 7.4, 0.5 mL) were prepared and mixed with a suspension of yeast cells (OD600 0.04 in SC-ura 2X (VWR, Atlanta, GA, USA), 0.5 mL). […] Experiments were carried out at least three times in all cases.

S. cerevisiae strains = assay: Minimal fungicidal concentration, S. cerevisiae strains; type: cell-based, Saccharomyces cerevisiae; conditions: fungistatic = growth on SC-ura plates after incubation at four times the MIC
Method: as §1

[3] = system: Saccharomyces cerevisiae BY4741/YEplac195; assay: microbe, parasite or virus in culture; type: cell-based; conditions: 24 h, 30 °C, average of at least three experiments; for MIC: Saccharomyces cerevisiae, read-out: MIC, Yeast, BY4741/ YEplac195
Excerpt: as §2, §3, §4

[4] = system: Saccharomyces cerevisiae BY4741/YEplac195-PDR5; assay: microbe, parasite or virus in culture; type: cell-based; conditions: 24 h; for MIC: Saccharomyces cerevisiae, read-out: MIC, Yeast, BY4741/ PDR5
Excerpt: as §2, §3, §4

E. coli JM101 = assay: Minimal bactericidal concentration, E. coli; type: cell-based, Escherichia coli; conditions: overnight incubation, plating on LB, bacteriostatic if growth at 4 times the MIC; for MBC: Escherichia coli, JM101
Method: as §1

E. coli = assay: Checkerboard titration synergy, E. coli; type: cell-based, Escherichia coli; conditions: synergistic when FICI ≤0.5
Method: The combined antimicrobial activity of the test compounds with the antibacterial or antifungal control agents was performed under the same conditions used for the MIC determination and following the procedures described by Carton Herrán, Reis de Sá et al. and Zharkova et al.. For each experiment, 16 samples (4 rows × 4 columns) in a total volume of 0.5 mL were prepared in tubes using an array of combinations between the MIC value and 0 μg/mL of the compound to be tested in each row, and between the MIC value and 0 μg/mL of the reference drug in each column. In this way, a variety of mixtures with different concentrations of them alone or in combination was obtained. Briefly, 0.5 mL of a microorganism culture was added to each one of the samples, and after incubation for 24 h with shaking at the appropriate temperature (37 °C or 30 °C), the tubs were visually inspected, and the OD600 was measured. From this information, the fractional inhibitory concentration index (FICI) was calculated according to the formula FIC index = ([A]/[CMI A]) + ([B]/[CMI B]), where [A] and [B] are respective concentrations of tested polyamine and reference drug in their combination effectively inhibiting the growth of bacteria or yeast, and [MIC A] and [MIC B] are the individual MICs of the tested polyamine and reference drug when they are used alone. An interaction is considered synergistic when the FICI value is ≤0.5 [41, 42].
To confirm the data obtained in the checkerboard assay, 30 μL of a ten-fold dilution of the tubes containing concentrations of half of the MIC of each one of the compounds alone (polyamine to be tested and reference drug) and one fourth of the MIC of each one in combination were also spread in LB or SC-ura plates (according to the microorganism considered in each case) and incubated at 37 °C or 30 °C. The visualisation of these plates was performed after 24 or 48 h, respectively. All these experiments were carried out in triplicate.

[5] = yeast strain not specified (Tables 5 and 10)

Row | Compound | MBC (S. aureus BHI) | MIC [1] | MIC [2, 5] | Minimal fungicidal concentration (MFC), S. cerevisiae Strains (S. cerevisiae strains) | MIC [3] | MIC [4] | MBC (E. coli JM101) | Synergy with Ampicillin (E. coli) | Synergy with Ciprofloxacin (E. coli) | Synergy with Doxycycline (E. coli) | Synergy with Gentamicin (E. coli) | MIC [2] | Minimal bactericidal concentration (MBC), E. coli JM101 (E. coli JM101) | Minimal bactericidal concentration (MBC), S. aureus BHI (S. aureus BHI) | MIC, Bacteria, S. aureus BHI [1] | MIC Yeast [2, 5] | MIC, Yeast, BY4741/ YEplac195 [3] | MIC, Yeast, BY4741/ PDR5 ([4]; 30 °C, Pdr5-overexpressing strain)
1 | c1cc2nc(c1)CNCCN(CCNCc1ccc3c(c1)OCO3)CCNC2 [Compound 5a, 2-(3,6,9-triaza-1(2,6)-pyridinacyclodecaphane-6-yl)-N-(benzo[d][1,3]dioxol-5-ylmethyl)ethan-1-amine] | 70 µg/mL (≈ 183 µM) | 35 µg/mL | 60 µg/mL (≈ 156 µM) | Fungistatic | 60 µg/mL | 60 µg/mL | 10 µg/mL (≈ 26.1 µM) |  |  |  |  |  |  |  |  |  |  | 
2 | Oc1ccccc1CNCCN1CCNCc2cccc(n2)CNCC1 [Compound 6a] | 160 µg/mL (≈ 450 µM) | 40 µg/mL | 45 µg/mL (≈ 127 µM) | Fungistatic | 45 µg/mL | 45 µg/mL | 10 µg/mL (≈ 28.1 µM) | no synergy and - | no synergy and - | no synergy and - | no synergy and - |  |  |  |  |  |  | 
3 | Oc1ccc(CNCCN2CCNCc3cccc(n3)CNCC2)cc1 [Compound 7a] |  | 135 µg/mL |  |  | 295 µg/mL | 295 µg/mL |  | - | - | - | positive results and + | 295 µg/mL (≈ 830 µM) | Bacteriostatic |  |  |  |  | 
4 | c1cc2nc(c1)CNCCN(CCNCc1ccc3c(c1)CCO3)CCNC2 [Compound 8a, 2-(3,6,9-triaza-1(2,6)-pyridinacyclodecaphane-6-yl)-N-((2,3-dihydrobenzofuran-5-yl)methyl)ethan-1-amine] | 400 µg/mL (≈ 1050 µM) | 100 µg/mL | 400 µg/mL (≈ 1050 µM) |  | 400 µg/mL | 400 µg/mL | 60 µg/mL (≈ 157 µM) | positive results and + | - | positive results and + | positive results and + |  |  |  |  |  |  | 
5 | N^1-(benzo[d][1,3]dioxol-5-ylmethyl)-N^3-(2-((2-((3-((benzo[d][1,3]dioxol-5-ylmethyl)amino)propyl)amino)ethyl)(2-((3-(((2,3-dihydrobenzofuran-6-yl)methyl)amino)propyl)amino)ethyl)amino)ethyl)propane-1,3-diamine [Compound 4a] |  |  |  | Fungistatic |  |  |  |  |  |  |  |  | 10 ^a µg/mL | 8 ^a µg/mL | 4 µg/mL | 150 µg/mL | 150 µg/mL | 150 µg/mL
